According to ChEMBL document CHEMBL1201862, “PubChem BioAssay data set” (2004):
The source made the active and inactive calls.

Experiments:
Assay type in all cases: functional
[1] = biological target: Tyrosine-protein kinase JAK2 (Homo sapiens, UniProt O60674);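 also: JAK2 tested as one member of a kinase panel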
[2] = biological target: 5'-AMP-activated protein kinase catalytic subunit alpha-1 (Homo sapiens, UniProt Q13131)
[3] = biological target: Serine/threonine-protein kinase PLK4 (Homo sapiens, UniProt O00444);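 also: PLK4 measured as one member of a kinome-wide kinase profiling panel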
[4] = biological target: Serine/threonine-protein kinase D2 (Homo sapiens, UniProt Q9BZL6);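 also: measured against PRKD2 as one member of a kinome-wide kinase profiling panel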
[5] = biological target: Ribosomal protein S6 kinase beta-1 (Homo sapiens, UniProt P23443);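 also: measured as one member of a kinome-wide profiling panel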
[6] = biological target: Death-associated protein kinase 3 (Homo sapiens, UniProt O43293);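 also: measured as one member of a kinome-wide profiling panel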
[7] = biological target: Cyclin-dependent kinase 2 (Homo sapiens, UniProt P24941);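 also: CDK2 measured as one member of a broad kinome profiling panel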
[8] = biological target: T1, Aurora kinase A (Homo sapiens, UniProt O14965);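 also: value from the Navigating the Kinome kinase panel profiling, panel entry STK6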
T1 sequence (O14965 whole entry): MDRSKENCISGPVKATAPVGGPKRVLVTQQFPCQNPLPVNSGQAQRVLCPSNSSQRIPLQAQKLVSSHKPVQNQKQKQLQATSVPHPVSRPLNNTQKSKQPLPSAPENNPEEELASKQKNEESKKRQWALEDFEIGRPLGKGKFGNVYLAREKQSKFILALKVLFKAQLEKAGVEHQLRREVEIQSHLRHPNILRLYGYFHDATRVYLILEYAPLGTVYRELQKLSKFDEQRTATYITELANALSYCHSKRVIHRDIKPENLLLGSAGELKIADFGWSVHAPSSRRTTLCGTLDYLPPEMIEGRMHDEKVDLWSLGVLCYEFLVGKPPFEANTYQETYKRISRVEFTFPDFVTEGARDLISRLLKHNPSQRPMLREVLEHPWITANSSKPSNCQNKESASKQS

[9] = biological target: MAP kinase-activated protein kinase 2 (Homo sapiens, UniProt P49137);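 also: measured as one member of a kinome-wide kinase panel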
[10] = biological target: Casein kinase II subunit alpha (Homo sapiens, UniProt P68400)
[11] = biological target: Tyrosine-protein kinase Lyn (Homo sapiens, UniProt P07948);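 also: lyn as one member of a kinase panel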
[12] = biological target: MAP/microtubule affinity-regulating kinase 3 (Homo sapiens, UniProt P27448);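 also: MARK3 affinity measured as one member of a kinome panel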
[13] = biological target: High affinity nerve growth factor receptor (Homo sapiens, UniProt P04629);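 also: NTRK1 tested as one member of a kinome-wide profiling panel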
[14] = biological target: Insulin receptor (Homo sapiens, UniProt P06213);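 also: insulin receptor kinase tested as one member of a kinome-wide kinase panel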
[15] = biological target: Proto-oncogene tyrosine-protein kinase Src (Homo sapiens, UniProt P12931);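 also: SRC entry within a kinome-wide kinase profiling panel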
[16] = biological target: Hepatocyte growth factor receptor (Homo sapiens, UniProt P08581);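 also: kinase panel profiling across the kinome, with MET as the panel member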
[17] = biological target: Receptor-type tyrosine-protein kinase FLT3 (Homo sapiens, UniProt P36888);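 also: FLT3 was tested as one member of a kinome-wide kinase panel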
[18] = biological target: Vascular endothelial growth factor receptor 2 (Homo sapiens, UniProt P35968)
[19] = biological target: Cyclin-dependent kinase 5 (Homo sapiens, UniProt Q00535);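 also: CDK5 measured as one member of a kinase profiling panel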
[20] = biological target: Mitogen-activated protein kinase 1 (Homo sapiens, UniProt P28482)
[21] = biological target: Vascular endothelial growth factor receptor 3 (Homo sapiens, UniProt P35916);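 also: value from a kinome-wide profiling panel, with FLT4 as the panel member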
[22] = biological target: Cyclin-dependent kinase 1 (Homo sapiens, UniProt P06493);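 also: Kinome-wide panel profiling, with the target listed as panel member CDC2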
[23] = biological target: Serine/threonine-protein kinase pim-2 (Homo sapiens, UniProt Q9P1W9);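 also: value comes from a broad kinase panel profiling study in which PIM2 was one of the panel members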
[24] = biological target: 3-phosphoinositide-dependent protein kinase 1 (Homo sapiens, UniProt O15530);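 also: value comes from the Navigating the Kinome panel, PDPK1 member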
[25] = biological target: Serine/threonine-protein kinase Nek2 (Homo sapiens, UniProt P51955)
[26] = biological target: Fibroblast growth factor receptor 3 (Homo sapiens, UniProt P22607)
[27] = biological target: BDNF/NT-3 growth factors receptor (Homo sapiens, UniProt Q16620);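 also: NTRK2 measured as one member of a broad kinome-wide kinase profiling panel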
[28] = biological target: Mitogen-activated protein kinase 12 (Homo sapiens, UniProt P53778);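 also: measured as one member of a kinome-wide kinase profiling panel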
[29] = biological target: Serine/threonine-protein kinase 3 (Homo sapiens, UniProt Q13188);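 also: measured as one member of a kinome-wide kinase panel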

Chain of Proto-oncogene tyrosine-protein kinase Src (P12931 2-536 limits assumed): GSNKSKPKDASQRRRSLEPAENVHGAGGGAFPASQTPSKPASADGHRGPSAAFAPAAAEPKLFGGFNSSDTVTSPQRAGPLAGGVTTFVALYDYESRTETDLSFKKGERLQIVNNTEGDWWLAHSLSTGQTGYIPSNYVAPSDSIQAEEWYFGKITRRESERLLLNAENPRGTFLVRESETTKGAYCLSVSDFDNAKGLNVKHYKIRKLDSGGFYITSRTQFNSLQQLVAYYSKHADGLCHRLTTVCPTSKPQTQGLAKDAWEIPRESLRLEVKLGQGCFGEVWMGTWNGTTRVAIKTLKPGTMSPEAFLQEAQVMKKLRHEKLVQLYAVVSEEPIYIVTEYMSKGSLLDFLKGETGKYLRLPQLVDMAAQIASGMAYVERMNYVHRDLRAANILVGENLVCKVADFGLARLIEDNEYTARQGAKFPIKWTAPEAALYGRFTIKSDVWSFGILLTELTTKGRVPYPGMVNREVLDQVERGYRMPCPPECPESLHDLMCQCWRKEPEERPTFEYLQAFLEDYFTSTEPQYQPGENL
Chain of MAP kinase-activated protein kinase 2 (P49137 whole entry): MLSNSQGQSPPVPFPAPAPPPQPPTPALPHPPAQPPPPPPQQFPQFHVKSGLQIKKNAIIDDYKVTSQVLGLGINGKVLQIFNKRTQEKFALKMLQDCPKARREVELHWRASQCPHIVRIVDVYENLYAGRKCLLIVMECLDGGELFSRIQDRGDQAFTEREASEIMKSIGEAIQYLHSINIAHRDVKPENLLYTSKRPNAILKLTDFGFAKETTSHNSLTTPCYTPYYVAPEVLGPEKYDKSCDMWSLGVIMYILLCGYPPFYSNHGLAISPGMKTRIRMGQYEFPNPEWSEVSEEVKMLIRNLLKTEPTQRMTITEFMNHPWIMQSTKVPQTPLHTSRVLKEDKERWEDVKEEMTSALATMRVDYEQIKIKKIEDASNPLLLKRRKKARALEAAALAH
Chain of Hepatocyte growth factor receptor (P08581 whole entry): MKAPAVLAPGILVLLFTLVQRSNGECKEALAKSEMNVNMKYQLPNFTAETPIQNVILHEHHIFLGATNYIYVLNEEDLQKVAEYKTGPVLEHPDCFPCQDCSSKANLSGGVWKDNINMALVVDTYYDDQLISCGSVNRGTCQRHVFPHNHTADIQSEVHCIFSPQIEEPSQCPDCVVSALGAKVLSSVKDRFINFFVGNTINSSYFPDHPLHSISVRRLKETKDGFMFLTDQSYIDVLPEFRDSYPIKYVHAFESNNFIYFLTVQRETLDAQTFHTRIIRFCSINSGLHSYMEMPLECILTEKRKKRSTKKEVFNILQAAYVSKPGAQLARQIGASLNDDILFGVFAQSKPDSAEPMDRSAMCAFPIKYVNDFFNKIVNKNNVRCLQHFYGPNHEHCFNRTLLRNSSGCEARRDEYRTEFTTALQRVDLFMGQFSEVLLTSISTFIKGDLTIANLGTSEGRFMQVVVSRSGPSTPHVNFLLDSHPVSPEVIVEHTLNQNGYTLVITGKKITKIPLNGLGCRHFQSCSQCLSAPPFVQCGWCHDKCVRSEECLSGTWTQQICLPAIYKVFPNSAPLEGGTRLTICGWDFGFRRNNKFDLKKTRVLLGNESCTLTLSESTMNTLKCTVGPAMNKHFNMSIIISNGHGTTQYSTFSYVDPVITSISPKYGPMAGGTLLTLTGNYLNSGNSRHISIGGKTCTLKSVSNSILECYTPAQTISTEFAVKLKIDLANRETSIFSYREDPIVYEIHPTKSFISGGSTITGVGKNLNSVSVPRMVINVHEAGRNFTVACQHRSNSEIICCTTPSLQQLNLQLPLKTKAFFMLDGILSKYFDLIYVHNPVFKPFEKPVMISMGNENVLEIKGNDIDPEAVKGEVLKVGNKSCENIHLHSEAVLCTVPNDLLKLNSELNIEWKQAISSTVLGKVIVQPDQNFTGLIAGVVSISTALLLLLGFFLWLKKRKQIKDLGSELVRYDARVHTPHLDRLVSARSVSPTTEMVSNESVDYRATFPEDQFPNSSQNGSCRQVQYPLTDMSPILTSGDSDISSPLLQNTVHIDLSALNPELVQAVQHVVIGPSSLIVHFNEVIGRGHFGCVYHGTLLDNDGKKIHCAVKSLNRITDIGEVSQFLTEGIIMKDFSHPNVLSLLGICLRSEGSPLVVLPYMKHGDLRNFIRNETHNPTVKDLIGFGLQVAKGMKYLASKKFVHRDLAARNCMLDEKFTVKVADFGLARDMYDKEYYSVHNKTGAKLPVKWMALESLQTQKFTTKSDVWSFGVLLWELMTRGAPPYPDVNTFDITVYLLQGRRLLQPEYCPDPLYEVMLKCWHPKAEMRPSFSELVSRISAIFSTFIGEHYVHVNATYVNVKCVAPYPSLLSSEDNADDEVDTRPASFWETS
Chain of Fibroblast growth factor receptor 3 (P22607 whole entry): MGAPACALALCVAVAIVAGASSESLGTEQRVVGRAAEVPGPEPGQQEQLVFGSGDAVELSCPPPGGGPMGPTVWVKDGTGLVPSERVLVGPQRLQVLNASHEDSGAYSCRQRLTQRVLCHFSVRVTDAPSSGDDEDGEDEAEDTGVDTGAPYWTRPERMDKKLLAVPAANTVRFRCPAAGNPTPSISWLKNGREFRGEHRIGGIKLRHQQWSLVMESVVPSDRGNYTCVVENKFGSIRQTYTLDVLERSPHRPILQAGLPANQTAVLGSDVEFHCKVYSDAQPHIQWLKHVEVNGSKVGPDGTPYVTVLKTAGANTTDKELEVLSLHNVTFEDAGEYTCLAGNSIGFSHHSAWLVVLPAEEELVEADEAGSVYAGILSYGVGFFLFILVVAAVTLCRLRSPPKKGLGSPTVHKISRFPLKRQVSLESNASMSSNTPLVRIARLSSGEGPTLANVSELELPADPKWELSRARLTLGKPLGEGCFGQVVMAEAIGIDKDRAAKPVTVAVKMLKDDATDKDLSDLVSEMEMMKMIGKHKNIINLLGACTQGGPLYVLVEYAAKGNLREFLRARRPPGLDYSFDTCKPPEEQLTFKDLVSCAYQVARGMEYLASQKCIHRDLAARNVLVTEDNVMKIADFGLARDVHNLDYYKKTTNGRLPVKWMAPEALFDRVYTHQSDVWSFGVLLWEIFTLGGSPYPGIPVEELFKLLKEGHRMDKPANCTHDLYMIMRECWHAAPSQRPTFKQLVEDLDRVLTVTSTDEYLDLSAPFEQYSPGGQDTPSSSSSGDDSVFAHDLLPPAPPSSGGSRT
Chain of Ribosomal protein S6 kinase beta-1 (P23443 whole entry): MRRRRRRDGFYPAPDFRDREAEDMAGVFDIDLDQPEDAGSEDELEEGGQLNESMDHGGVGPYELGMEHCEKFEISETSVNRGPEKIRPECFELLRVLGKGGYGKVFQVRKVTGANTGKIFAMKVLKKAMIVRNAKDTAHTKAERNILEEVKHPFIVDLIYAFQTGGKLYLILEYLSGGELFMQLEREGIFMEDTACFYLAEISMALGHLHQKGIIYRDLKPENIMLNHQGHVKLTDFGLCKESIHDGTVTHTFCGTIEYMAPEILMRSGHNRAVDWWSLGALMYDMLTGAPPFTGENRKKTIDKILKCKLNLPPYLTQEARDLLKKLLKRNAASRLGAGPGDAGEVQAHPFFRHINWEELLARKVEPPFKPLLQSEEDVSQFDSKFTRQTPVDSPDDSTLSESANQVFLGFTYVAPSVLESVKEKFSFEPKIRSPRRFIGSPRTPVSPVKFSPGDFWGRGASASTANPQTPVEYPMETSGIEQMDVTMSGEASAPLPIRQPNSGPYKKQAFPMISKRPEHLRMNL
Chain of 5'-AMP-activated protein kinase catalytic subunit alpha-1 (Q13131 whole entry): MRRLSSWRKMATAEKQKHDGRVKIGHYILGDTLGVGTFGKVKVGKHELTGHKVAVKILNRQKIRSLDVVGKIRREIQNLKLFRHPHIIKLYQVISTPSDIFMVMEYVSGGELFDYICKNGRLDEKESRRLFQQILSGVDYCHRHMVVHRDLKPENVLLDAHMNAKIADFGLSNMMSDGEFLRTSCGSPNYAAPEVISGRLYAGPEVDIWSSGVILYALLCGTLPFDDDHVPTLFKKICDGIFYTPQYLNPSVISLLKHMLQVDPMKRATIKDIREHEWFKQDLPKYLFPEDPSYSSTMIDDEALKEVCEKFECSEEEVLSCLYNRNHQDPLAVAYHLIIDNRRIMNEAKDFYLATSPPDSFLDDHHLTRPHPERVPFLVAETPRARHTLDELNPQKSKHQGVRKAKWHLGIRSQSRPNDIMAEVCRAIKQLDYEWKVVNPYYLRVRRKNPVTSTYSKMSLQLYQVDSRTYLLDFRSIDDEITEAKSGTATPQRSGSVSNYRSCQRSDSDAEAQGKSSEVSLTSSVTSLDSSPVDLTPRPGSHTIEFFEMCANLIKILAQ
Chain of Cyclin-dependent kinase 1 (P06493 whole entry): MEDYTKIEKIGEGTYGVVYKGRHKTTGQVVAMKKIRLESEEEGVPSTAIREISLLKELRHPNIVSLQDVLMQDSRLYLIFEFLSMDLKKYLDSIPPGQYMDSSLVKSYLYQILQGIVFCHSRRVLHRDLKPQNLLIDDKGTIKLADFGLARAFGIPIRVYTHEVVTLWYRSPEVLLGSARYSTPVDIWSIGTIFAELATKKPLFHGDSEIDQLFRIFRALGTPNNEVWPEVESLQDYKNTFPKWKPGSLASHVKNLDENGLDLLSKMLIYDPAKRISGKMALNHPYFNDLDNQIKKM
Chain of Serine/threonine-protein kinase Nek2 (P51955 whole entry): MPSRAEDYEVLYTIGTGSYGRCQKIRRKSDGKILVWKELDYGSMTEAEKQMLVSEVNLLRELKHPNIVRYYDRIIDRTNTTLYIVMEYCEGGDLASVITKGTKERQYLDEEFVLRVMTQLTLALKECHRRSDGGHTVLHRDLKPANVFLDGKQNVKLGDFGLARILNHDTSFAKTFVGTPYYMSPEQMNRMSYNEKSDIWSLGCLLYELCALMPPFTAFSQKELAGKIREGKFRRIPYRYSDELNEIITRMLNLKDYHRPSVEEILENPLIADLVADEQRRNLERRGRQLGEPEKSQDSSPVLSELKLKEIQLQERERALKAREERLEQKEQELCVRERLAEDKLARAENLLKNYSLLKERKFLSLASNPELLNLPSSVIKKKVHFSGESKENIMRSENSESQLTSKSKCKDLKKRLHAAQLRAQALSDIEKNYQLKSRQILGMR

| Ki [1] | Ki [2] | Ki [3] | Ki [4] | Ki [5] | Ki [7] | Ki [8] | Ki [9] | Ki [10] | Ki [11] | Ki [12] | Ki [13] | Ki [14] | Ki [15] | Ki [16] | Ki [17] | Ki [18] | Ki [19] | Ki [20] | Compound | Ki [6] | also measured |
| --- | --- | --- | --- | --- | --- | --- | --- | --- | --- | --- | --- | --- | --- | --- | --- | --- | --- | --- | --- | --- | --- |
| > 1580 nM (inactive) | > 10000 nM (inactive) | 794 nM (active) | > 10000 nM (inactive) | 1260 nM (active) | > 7940 nM (inactive) | 794 nM (active) | > 7940 nM (inactive) | 63.1 nM (active) | 1580 nM (active) | > 6310 nM (inactive) | > 2510 nM (inactive) | > 5010 nM (inactive) | 1580 nM (active) | > 3160 nM (inactive) | 631 nM (active) | > 7940 nM (inactive) | > 10000 nM (inactive) | > 7940 nM (inactive) | Cc1c(C=O)c(O)n2c(nc3ccccc32)c1C#N | 1000 nM (active) | Ki [21]: 794 nM (active); Ki [22]: > 7940 nM (inactive); Ki [23]: > 1580 nM (inactive); Ki [24]: > 3980 nM (inactive); Ki [25]: > 10000 nM (inactive); Ki [26]: > 2000 nM (inactive); Ki [27]: > 5010 nM (inactive); Ki [28]: > 6310 nM (inactive); Ki [29]: 5010 nM (active) |
| > 1580 nM (inactive) | 12.6 nM (active) | 2510 nM (active) | 251 nM (active) | 12.6 nM (active) | 10 nM (active) | > 1580 nM (inactive) | 1580 nM (active) | 794 nM (active) | > 1580 nM (inactive) | 63.1 nM (active) | > 2510 nM (inactive) | > 5010 nM (inactive) | > 2000 nM (inactive) | > 3160 nM (inactive) | 1580 nM (active) | > 7940 nM (inactive) | 63.1 nM (active) | 631 nM (active) | Cc1n[nH]c2cnc(-c3cncc(OCC(N)Cc4cccc(C(F)(F)F)c4)c3)cc12 (stereo not drawn) | 3.98 nM (active) | Ki [21]: 3160 nM (active); Ki [22]: 31.6 nM (active); Ki [23]: 1.26 nM (active); Ki [24]: 200 nM (active); Ki [25]: > 10000 nM (inactive); Ki [26]: > 2000 nM (inactive); Ki [27]: > 5010 nM (inactive); Ki [28]: 1000 nM (active); Ki [29]: 79.4 nM (active) |
